Measurements taken from patent EP2881391A1, “Spiroindoline carbocycle derivatives and pharmaceutical compositions thereof” (Bayer Pharma Aktiengesellschaft, priority 2013, dated 2015).
pIC50: −log10 of the molar value.

What follows are compounds tested against T1, human GnRH receptor (Homo sapiens, UniProt P30968) (assay: IP-One HTRF assay (inhibition of GnRH-R activation by buserelin)). Details: IP-One HTRF assay with buserelin (at EC80) stimulation; CHO cells stably expressing human GnRH receptor; tested 20 µM to 1 nM; read-out: Potency IC50.
T1 construct: line established by Prof; Thomas Gudermann; host or cells: CHO cells
T1 sequence (P30968 1-328): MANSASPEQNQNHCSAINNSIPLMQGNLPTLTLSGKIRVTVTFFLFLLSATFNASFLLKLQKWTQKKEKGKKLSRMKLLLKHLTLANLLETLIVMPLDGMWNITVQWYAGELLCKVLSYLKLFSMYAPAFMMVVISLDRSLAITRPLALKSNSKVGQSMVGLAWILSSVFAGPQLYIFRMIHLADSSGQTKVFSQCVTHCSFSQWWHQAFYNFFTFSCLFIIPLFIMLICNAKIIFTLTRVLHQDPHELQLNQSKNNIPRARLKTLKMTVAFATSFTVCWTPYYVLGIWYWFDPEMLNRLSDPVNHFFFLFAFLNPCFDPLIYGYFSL
Type: cell-based
From the text: By using homogenous time-resolved fluorescence resonance energy transfer (HTRF), the generation of one component of the GnRH-R signalling cascade can be measured. After stimulation of CHO cells stably expressing human GnRH receptor (established by Prof. Thomas Gudermann, currently University of Marburg, Germany; supplied as frozen cell aliquots by Cell Culture Services, Hamburg, Germany) with the EC80 of the GnRH agonist buserelin, Gq protein-coupled receptor signalling cascade is activated resulting in PLC-dependent cleavage of PIP2 to Inositol-1,4,5-triphosphate (IP3) and Diacylglycerol. The second messenger IP3 is degraded intracellularly to myo-inositol. Inhibition of the final degradation step from Inositol-1-phosphate (IP1) to myo-inositol by addition of lithium chloride leads to accumulation of IP1 in the cells. In cell lysates, IP1 can be detected via an antibody-based HTRF detection technology, where IP1 can displace the FRET acceptor IP1-d2 from binding by Terbium-labelled anti-IP1 antibody as donor resulting in a signal decrease. Compounds were tested for their capability of inhibiting GnRH-R activation by buserelin. For all IP-One HTRF® assays reagents of Cisbio Bioassays (IP-One Tb Jumbo kit, #62IPAPEJ; Cisbio Bioassays, Bagnols sur Cèze Cedex, France) were used.
For the assay, frozen cell aliquots were thawed and a cell suspension (3.33x10^6 cells/ml) containing IP1-d2 (dilution 1:40) was prepared and incubated at 37°C. After 1 h 3 µl of the cell suspension were added to 50 nl of a 100-fold concentrated solution of the test compound in DMSO pre-dispensed in a well of a white low-volume 384-well microtiter plate (Greiner Bio-One, Frickenhausen, Germany). The mixture was incubated for 20 min at 22°C to allow for pre-binding of the test compound to the GnRH-R. The receptor signaling cascade was stimulated by addition of 2 µl buserelin or LHRH (at EC50 or EC80) in stimulation buffer (10 mM Hepes pH 7.4, 1 mM CaCl2, 0.5 mM MgCl2, 4.2 mM KCI, 146 mM NaCl, 5.5 mM α-D-Glucose, 0.05% BSA, 125 mM LiCl (final assay concentration 50 mM) in aqua dest.). Plates were incubated for 1 h at 37°C and 5% carbon dioxide before the cells were lysed by adding 3 µl Terbium-labelled anti-IP1 antibody (1:40) diluted in Conjugate & Lysis buffer as supplied with the kit. After an incubation for 1 h at 22°C to enable complete cell lysis and antibody binding to free IP1 or IP1-d2, plates were measured in an HTRF reader, e.g. a RUBYstar, PHERAstar (both BMG Labtechnologies, Offenburg, Germany) or a Viewlux (PerkinElmer LAS, Rodgau-Jügesheim, Germany). From the fluorescence emissions at 665 nm (FRET) and at 620 nm (background signal of Terbium-antibody), the ratio (emission at 665 nm divided by emission at 620 nm) was calculated and the data were normalized (reaction without test compound = 0% inhibition; all other assay components except agonist = 100% inhibition). On the same microtiter plate, compounds were tested at 10 different concentrations in the range of 20 µM to 1 nM (20 µM, 6.7 µM, 2.2 µM, 0.74 µM, 0.25 µM, 82 nM, 27 nM, 9.2 nM, 3.1 nM and 1 nM; dilution series prepared before the assay at the level of the 100-fold conc. stock solutions by serial 1:3 dilutions in 100% DMSO) in duplicate values for each concentration. By using an in-house software, the IC50 values were calculated by a 4 parameter fit. The data reveal that the compounds of the present invention have antagonist activities on the human GnRH receptor. Within the meaning of the present invention the antagonist activity is reflected by the ability of a compound of the invention to antagonize human GnRH receptor stimulation in IP-One HTRF® assay at least three times the standard deviation over the background level.
With `COC(=O)c1cccc(S(=O)(=O)N2c3ccc(C(=O)NCc4ncc(C(F)(F)F)cc4F)cc3C3(CCC(O)(C(F)(F)F)CC3)C2C2CC2)c1` (stereo not shown) [Example 28, methyl 3-{[2'-cyclopropyl-5'-({[3-fluoro-5-(trifluoromethyl)pyridin-2-yl]methyl}carbamoyl)-4-hydroxy-4-(trifluoromethyl)spiro[cyclohexane-1,3'-indol]-1'(2'H)-yl]sulfonyl}benzoate] the pIC50 was 5.75.
Compound `COC(=O)c1cccc(S(=O)(=O)N2c3ccc(C(=O)NCc4ncccc4C(F)(F)F)cc3C3(CCC(O)(C(F)(F)F)CC3)C2C2CC2)c1` (stereo not shown) [Example 29, methyl 3-{[2'-cyclopropyl-4-hydroxy-4-(trifluoromethyl)-5'-({[3-(trifluoromethyl)pyridin-2-yl]methyl}carbamoyl)spiro[cyclohexane-1,3'-indol]-1'(2'H)-yl]sulfonyl}benzoate] has a pIC50 of 6.21.
In the case of `COC(=O)c1cccc(NC(=O)c2ccc3c(c2)C2(CCC(O)(C(F)(F)F)CC2)C(C2CC2)N3S(=O)(=O)c2cccc(OC)c2)c1` (stereo not shown) [Example 31, methyl 3-[({2'-cyclopropyl-4-hydroxy-1'-[(3-methoxyphenyl)su Ifonyl]-4-(trifluoromethyl)-1',2'-dihydrospiro[cyclohexane-1,3'-indol]-5'-yl}carbonyl)amino] benzoate], the pIC50 was 6.17.
In the case of `COC(=O)c1cccc(NC(=O)c2ccc3c(c2)C2(CCC(O)(C(F)(F)F)CC2)C(CC=C(C)C)N3S(=O)(=O)c2ccc(F)cc2)c1` (stereo not shown) [Example 32, methyl 3-[({1'-[(4-fluorophenyl)sulfonyl]-4-hydroxy-2'-(3-methylbut-2-en-1-yl)-4-(trifluoromethyl)-1',2'-dihydrospiro[cyclohexane-1,3'-indol]-5'-yl}carbonyl)amino] benzoate], the pIC50 was 6.31.
`COc1cccc(S(=O)(=O)N2c3ccc(C(=O)Nc4cc[nH]n4)cc3C3(CCC(O)(C(F)(F)F)CC3)C2C2CC2)c1` (stereo not shown) [Example 33, 2'-cyclopropyl-4-hydroxy-1'-[(3-methoxyphenyl)su Ifonyl]-N-(1H-pyrazol-3-yl)-4-(trifluoromethyl)-1',2'-dihydrospiro[cyclohexane-1,3'-indole]-5'-carboxamide] gave a pIC50 of 5.65.
With `COc1cccc(S(=O)(=O)N2c3ccc(C(=O)Nc4cccc(C)c4)cc3C3(CCC(O)(C(F)(F)F)CC3)C2C2CC2)c1` (stereo not shown) [Example 34, 2'-cyclopropyl-4-hydroxy-1'-[(3-methoxyphenyl)su Ifonyl]-N-(3-methylphenyl)-4-(trifluoromethyl)-1',2'-dihydrospiro[cyclohexane-1,3'-indole]-5'-carboxamide] the pIC50 was 5.47.
In the case of `COc1cccc(S(=O)(=O)N2c3ccc(C(=O)Nc4cccc(C(=O)O)c4)cc3C3(CCC(O)(C(F)(F)F)CC3)C2C2CC2)c1` (stereo not shown) [Example 35, 3-[({2'-cyclopropyl-4-hydroxy-1 '-[(3-methoxyphenyl)su Ifonyl]-4-(trifluoromethyl)-1',2'-dihydrospiro[cyclohexane-1,3'-indol]-5'-yl}carbonyl)amino] benzoic acid], the pIC50 was 5.86.
For `COc1cccc(S(=O)(=O)N2c3ccc(C(=O)Nc4cccc(S(C)(=O)=O)c4)cc3C3(CCC(O)(C(F)(F)F)CC3)C2C2CC2)c1` (stereo not shown) [Example 36, 2'-cyclopropyl-4-hydroxy-1'-[(3-methoxyphenyl)su Ifonyl]-N-[3-(methylsulfonyl)phenyl]-4-(trifluoromethyl)-1',2'-dihydrospiro[cyclohexane-1,3'-indole]-5'-carboxamide], the pIC50 was 5.90.
For `COc1cccc(S(=O)(=O)N2c3ccc(C(=O)Nc4cccc(S(N)(=O)=O)c4)cc3C3(CCC(O)(C(F)(F)F)CC3)C2C2CC2)c1` (stereo not shown) [Example 37, 2'-cyclopropyl-4-hydroxy-1'-[(3-methoxyphenyl)su Ifonyl]-N-(3-sulfamoylphenyl)-4-(trifluoromethyl)-1',2'-dihydrospiro[cyclohexane-1,3'-indole]-5'-carboxamide], the pIC50 was 5.58.
`COc1cccc(S(=O)(=O)N2c3ccc(C(=O)Nc4ccon4)cc3C3(CCC(O)(C(F)(F)F)CC3)C2C2CC2)c1` (stereo not shown) [Example 38, 2'-cyclopropyl-4-hydroxy-1'-[(3-methoxyphenyl)su Ifonyl]-N-(1,2-oxazol-3-yl)-4-(trifluoromethyl)-1',2'-dihydrospiro[cyclohexane-1,3'-indole]-5'-carboxamide] gave a pIC50 of 5.77.
Compound `COc1cccc(S(=O)(=O)N2c3ccc(C(=O)Nc4cncc(C)c4)cc3C3(CCC(O)(C(F)(F)F)CC3)C2C2CC2)c1` (stereo not shown) [Example 39, 2'-cyclopropyl-4-hydroxy-1'-[(3-methoxyphenyl)su Ifonyl]-N-(5-methylpyridin-3-yl)-4-(trifluoromethyl)-1',2'-dihydrospiro[cyclohexane-1,3'-indole]-5'-carboxamide] has a pIC50 of 5.77.
Compound `COc1cccc(S(=O)(=O)N2c3ccc(C(=O)Nc4cncc(C(F)(F)F)c4)cc3C3(CCC(O)(C(F)(F)F)CC3)C2C2CC2)c1` (stereo not shown) [Example 40, 2'-cyclopropyl-4-hydroxy-1'-[(3-methoxyphenyl)su Ifonyl]-4-(trifluoromethyl)-N-[5-(trifluoromethyl)pyridin-3-yl]-1',2'-dihydrospiro[cyclohexane-1,3'-indole]-5'-carboxamide] has a pIC50 of 5.25.
Compound `COc1cccc(S(=O)(=O)N2c3ccc(C(=O)Nc4ncco4)cc3C3(CCC(O)(C(F)(F)F)CC3)C2C2CC2)c1` (stereo not shown) [Example 41, 2'-cyclopropyl-4-hydroxy-1'-[(3-methoxyphenyl)su Ifonyl]-N-(1,3-oxazol-2-yl)-4-(trifluoromethyl)-1',2'-dihydrospiro[cyclohexane-1,3'-indole]-5'-carboxamide] has a pIC50 of 5.83.
`COc1cccc(S(=O)(=O)N2c3ccc(C(=O)NCC4CCCCC4)cc3C3(CCC(O)(C(F)(F)F)CC3)C2C2CC2)c1` (stereo not shown) [Example 42, N-(cyclohexylmethyl) -2'-cyclopropyl-4-hydroxy-1'-[(3-methoxyphenyl)su Ifonyl]-4-(trifluoromethyl)-1',2'-dihydrospiro[cyclohexane-1,3'-indole]-5'-carboxamide] gave a pIC50 of 5.72.
With `COc1cccc(S(=O)(=O)N2c3ccc(C(=O)NCc4ccccc4Cl)cc3C3(CCC(O)(C(F)(F)F)CC3)C2C2CC2)c1` (stereo not shown) [Example 43, N-(2-chlorobenzyl)-2'-cyclopropyl-4-hydroxy-1'-[(3-methoxyphenyl)su Ifonyl]-4-(trifluoromethyl)-1',2'-dihydrospiro[cyclohexane-1,3'-indole]-5'-carboxamide] the pIC50 was 6.21.
`COc1cccc(S(=O)(=O)N2c3ccc(C(=O)NCc4ncccc4C(F)(F)F)cc3C3(CCC(O)(C(F)(F)F)CC3)C2C2CC2)c1` (stereo not shown) [Example 44, 2'-cyclopropyl-4-hydroxy-1'-[(3-methoxyphenyl)su Ifonyl]-4-(trifluoromethyl)-N-{[3-(trifluoromethyl)pyridin-2-yl]methyl}-1',2'-dihydrospiro[cyclohexane-1,3'-indole]-5'-carboxamide] showed a pIC50 of 6.39.
